In patent US20210045385A1, “PYRIDAZINONE-SUBSTITUTED KETOXIMES AS HERBICIDES” (FMC Corporation, priority 2018, published 2021):

Assays:
Assay type in all cases: in vivo
[1] = test system: barnyardgrass (Echinochloa crus-galli); test: Test B flooded paddy test, visual plant response rating; settings: 250 g ai/ha, Flood, applied to paddy water, 2-leaf stage, evaluated after 13 to 15 days
Summary of the method: (§1)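 Test pots are flooded 3 cm above the soil at treatment, and the test substance is introduced into this standing water. After keeping the flood level and growing plants, treated at the 2-leaf stage, for 13 to 15 days under glass, injury is assessed visually versus controls.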

[2] = test system: sedge, umbrella (small-flower umbrella sedge, Cyperus difformis); test: as above; settings: 250 g ai/ha, Flood, applied to paddy water, 2-leaf stage, evaluated after 13 to 15 days
Summary of the method: as §1

[3] = test system: ducksalad (Heteranhera limosa); test: as above; settings: 250 g ai/ha, Flood, applied to paddy water, 2-leaf stage, evaluated after 13 to 15 days
Summary of the method: as §1

rice (Oryza sativa) = test: as above; settings: 250 g ai/ha, Flood, applied to paddy water, 2-leaf stage, evaluated after 13 to 15 days
Summary of the method: as §1

[4] = test system: barnyardgrass (Echinochloa crus-galli); test: Test A postemergence, visual plant response rating
Summary of the method: (§2)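 Ratings 0–100 (100 = complete control), visual, vs untreated controls at ~10 days. Application pre- or postemergence; solvent mixture with surfactant; loam/sand medium.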

[5] = test system: wheat (Triticum aestivum); test: Test A postemergence, visual plant response rating
Summary of the method: as §2

[6] = test system: blackgrass (Alopecurus myosuroides); test: Test A postemergence, visual plant response rating
Summary of the method: as §2

corn (Zea mays) = test: Test A postemergence, visual plant response rating
Summary of the method: as §2

kochia (Kochia scoparia) [7] = test: Test A postemergence, visual plant response rating
Summary of the method: as §2

[8] = test system: ragweed (common ragweed, Ambrosia elatior); test: Test A postemergence, visual plant response rating
Summary of the method: as §2

[9] = test system: Italian ryegrass (Lolium multiflorum); test: Test A postemergence, visual plant response rating
Summary of the method: as §2

[10] = test system: galium (catchweed bedstraw, Galium aparine); test: Test A postemergence, visual plant response rating
Summary of the method: as §2

[11] = test system: pigweed (Amaranthus retroflexus); test: Test A postemergence, visual plant response rating
Summary of the method: as §2

[12] = test system: foxtail, giant (giant foxtail, Setaria faberii); test: Test A postemergence, visual plant response rating
Summary of the method: as §2

[13] = test system: barnyardgrass (Echinochloa crus-galli); test: Test A preemergence, visual plant response rating
Summary of the method: as §2

kochia (Kochia scoparia) [14] = test: Test A preemergence, visual plant response rating
Summary of the method: as §2

[15] = test system: ragweed (common ragweed, Ambrosia elatior); test: Test A preemergence, visual plant response rating
Summary of the method: as §2

[16] = test system: Italian ryegrass (Lolium multiflorum); test: Test A preemergence, visual plant response rating
Summary of the method: as §2

[17] = test system: pigweed (Amaranthus retroflexus); test: Test A preemergence, visual plant response rating
Summary of the method: as §2

[18] = test system: foxtail, giant (giant foxtail, Setaria faberii); test: Test A preemergence, visual plant response rating
Summary of the method: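 Compared with untreated controls, treated plants received a visual injury score on a 0–100 scale around 10 days after application. The compound, in a non-phytotoxic solvent with surfactant, was given as a preemergence soil spray or postemergence at the one- to two-leaf stage.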

[19] = 500 g ai/ha, postemergence, 0 is no effect, 100 is complete control
[20] = Postemergence, 125 g ai/ha, 0 to 100 scale (0 no effect, 100 complete control)
[21] = 125 g ai/ha, preemergence, 0 to 100 scale, 0 no effect, 100 complete control
[22] = 500 g ai/ha Preemergence, approx. 10 days

For `CON=C(c1cc(C)cs1)c1c(O)c(C)nn(C)c1=O` (mixture of isomers) [Compound 133], the “Plant response rating, Barnyardgrass (0 to 100 scale, 0 is no effect, 100 is complete control)” value [1] was 0, the “Plant response rating, Sedge, Umbrella (0 to 100 scale, 0 is no effect, 100 is complete control)” value [2] was 0 and the “Plant response rating, Ducksalad (0 to 100 scale, 0 is no effect, 100 is complete control)” value [3] was 0. For the same compound, the “Plant response rating, Rice (0 to 100 scale, 0 is no effect, 100 is complete control)” value (rice (Oryza sativa)) was 0, the “Barnyardgrass plant response rating (0 to 100 scale)” value [4, 19] was 0 and the “Barnyardgrass plant response rating” value [4, 20] was 0. For the same compound, the “Wheat plant response rating (0 to 100 scale)” value [5, 19] was 0, the “Wheat plant response rating” value [5, 20] was 0 and the “Blackgrass plant response rating (0 to 100 scale)” value [6, 19] was 0. For the same compound, the “Blackgrass plant response rating” value [6, 20] was 0, the “Corn plant response rating (0 to 100 scale)” value (corn (Zea mays); [19]) was 0 and the “Corn plant response rating” value (corn (Zea mays); [20]) was 0. For the same compound, the “Kochia plant response rating (0 to 100 scale)” value (kochia (Kochia scoparia) [7]; [19]) was 60, the “Kochia plant response rating” value (kochia (Kochia scoparia) [7]; [20]) was 20 and the “Ragweed plant response rating (0 to 100 scale)” value [8, 19] was 30. The “Ragweed plant response rating” value [8, 20] was 10, the “Ryegrass, Italian plant response rating (0 to 100 scale)” value [9, 19] was 0 and the “Ryegrass, Italian plant response rating” value [9, 20] was 0. For the same compound, the “Galium plant response rating (0 to 100 scale)” value [10, 19] was 60, the “Galium plant response rating” value [10, 20] was 20 and the “Pigweed plant response rating (0 to 100 scale)” value [11, 19] was 80. The “Pigweed plant response rating” value [11, 20] was 50, the “Foxtail, Giant plant response rating (0 to 100 scale)” value [12, 19] was 10 and the “Foxtail, Giant plant response rating” value [12, 20] was 0. For the same compound, the “Barnyardgrass plant response rating” value [13, 21] was 0, the “Barnyardgrass plant response rating (0 to 100 scale)” value [13, 22] was 0 and the “Kochia plant response rating” value (kochia (Kochia scoparia) [14]; [21]) was 0. The “Kochia plant response rating (0 to 100 scale)” value (kochia (Kochia scoparia) [14]; [22]) was 20, the “Ragweed plant response rating” value [15, 21] was 0 and the “Ragweed plant response rating (0 to 100 scale)” value [15, 22] was 40. For the same compound, the “Ryegrass, Italian plant response rating” value [16, 21] was 0, the “Ryegrass, Italian plant response rating (0 to 100 scale)” value [16, 22] was 0 and the “Pigweed plant response rating” value [17, 21] was 0. The “Pigweed plant response rating (0 to 100 scale)” value [17, 22] was 0, the “Foxtail, Giant plant response rating” value [18, 21] was 0 and the “Foxtail, Giant plant response rating (0 to 100 scale)” value [18, 22] was 0.
